Like-named read-outs stand apart in the source and are kept apart here.
What was measured:
silkworm eggs [1] = details: cited from earlier work; for hatching rate: silkworm eggs 20 h after oviposition, 15% acid treatment (Manqiao Jiang et al.)
[2] = tested on: silkworm eggs of a "Liangguang 2" quaternary hybrid; assay: Feeding results of larvae after treating silkworm eggs by warm water hatching and hydrochloric acid hatching; format: in vivo, Bombyx mori; details: eggs treated 18 h after laying, larvae fed after hatching
Method: 18 h after laying eggs, silkworm eggs of a “Liangguang 2” quaternary hybrid were treated in a hydrochloric acid solution (at a specific gravity of 1.075, 46° C.) for 5 min, followed by taking out for air-drying, incubation and hatching. Statistics was conducted on cocooning rate, whole cocoon weight, cocoon shell weight, cocoon shell rate and 10,000-silkworm cocoon weight.
18 h after laying eggs, silkworm eggs of a “Liangguang 2” quaternary hybrid were treated in a 50° C. warm aqueous solution (containing 0.2 g/L of chitosan, 0.1 g/L of hydroxypropyl cellulose and 0.1 g/L of γ-aminobutyric acid) for 20 s, followed by taking out for air-drying, incubation and hatching. Statistics was conducted on cocooning rate, whole cocoon weight, cocoon shell weight, cocoon shell rate and 10,000-silkworm cocoon weight.

silkworm eggs [3] = assay: Practical hatching rate of silkworm eggs after immersion treatment; format: in vivo, Bombyx mori; details: "Liangguang 2" quaternary hybrid, 18 h after laying, specific gravity 1.075, 46° C. for 5 min
Method: After laying eggs, “Liangguang 2” silkworm eggs were placed at 25° C.±1° C. and a humidity of 80%±5% for protection; the silkworm eggs with egg ages of 11 h, 13 h, 15 h, 17 h, 19 h, 21 h and 23 h were placed in an aqueous solution (containing 0.2 g/L of chitosan, 0.1 g/L of hydroxypropyl cellulose and 0.1 g/L of γ-aminobutyric acid) and then treated at 50° C. for 15 s, followed by taking out and air-drying for 25 min; and the silkworm eggs were subjected to incubation and hatching, wherein 3 replicates were set for each treatment. A practical hatching rate was calculated according to formula I, and an egg age-practical hatching rate curve was drawn. Practical hatching rate (%)=number of newly-hatched silkworms in two days/the total number of good eggs×100% formula I
17 h after laying eggs, silkworm eggs of a “Liangguang 2” quaternary hybrid were treated in a 50° C. aqueous solution (containing 0.1 g/L of chitosan, 0.2 g/L of hydroxypropyl cellulose and 0.05 g/L of γ-aminobutyric acid) for 20 s, followed by taking out for air-drying, incubation and hatching.
A practical hatching rate was counted. […]

CC(=O)O [acetic acid]
hatching rate (silkworm eggs [1]): relatively low hatching rate

C[S+](C)[O-] [dimethyl sulfoxide]
effect of preventing diapause (silkworm eggs [1]; Yamamoto et al.): 78%

Cl [hydrochloric acid]
10,000-silkworm cocoon weight [2]: 13.05 kg
Cocoon shell rate [2]: 19.42%
Cocoon shell weight [2]: 0.26 g
Cocooning rate [2]: 96.27%
Whole cocoon weight [2]: 1.35 g
hatching rate (silkworm eggs [3]): 95.86%

O=[N+]([O-])O [nitric acid]
hatching rate (silkworm eggs [1]): not less than 95%

O=P(O)(O)O [phosphoric acid]
hatching rate (silkworm eggs [1]): relatively low hatching rate

— patent US12058988B2, “Warm water immersion-based hatching method of silkworm eggs” (Sericulture and Agri-Food Research Institute, Guangdong …, priority 2021, dated 2024)
